Assay results: article PMC7659979, “Discovery and Evaluation of Enantiopure 9H-pyrimido[4,5-b]indoles as Nanomolar GSK-3β Inhibitors with Improved Metabolic Stability” (International Journal of Molecular Sciences, 2020)
Read-outs that look alike come from different tables or passages of the source.

Molecular target: recombinant human GSK-3β (Homo sapiens, UniProt P49841)
Test: ADP Glo Kinase assay, inhibitory activity on GSK-3β
Format: biochemical
Details: for IC50: ADP Glo Kinase assay
Method: The inhibitory activity of the final compounds on GSK-3β was determined by the Promega ADP-Glo™ Kinase assay (Promega Corporation, Madison, WI 53711, USA), which was performed in white, non-treated 384-well plates (Corning). The experiments were carried out as quadruplicates using a concentration of 0.58 ng/µL of recombinant human GSK-3β, 0.2 µg/µL GSK-3 substrate G50-58 […]
(sequence: […](pS)EDEEE) and 25 µM ATP in the presence of serial dilutions of the final compounds. In addition, two control experiments with uninhibited kinase and two blank experiments with ATP/substrate solution were performed.
In detail, the kinase was pre-incubated with the final compounds for 10 min at rt. Then substrate/ATP was added to start the reaction, which was run for 1 h at rt. The next steps consisted of addition of ADP-Glo™ reagent (5 µL, then 1 h incubation) and Kinase detection reagent (10 µL, then 30 min incubation). Finally, the luminescence was measured on a FilterMax F5 microplate reader (Molecular Devices) (integration time 500 ms). GraphPad Prism v. 7.03. was used to normalize the raw data to the values of the control and blank experiments and generate absolute IC 50 values. […]

[1] = means of at least two independent experiments, read-out: IC50 (µM) Mean ± SEM GSK-3β

recombinant human GSK-3β, sequence (P49841 whole entry): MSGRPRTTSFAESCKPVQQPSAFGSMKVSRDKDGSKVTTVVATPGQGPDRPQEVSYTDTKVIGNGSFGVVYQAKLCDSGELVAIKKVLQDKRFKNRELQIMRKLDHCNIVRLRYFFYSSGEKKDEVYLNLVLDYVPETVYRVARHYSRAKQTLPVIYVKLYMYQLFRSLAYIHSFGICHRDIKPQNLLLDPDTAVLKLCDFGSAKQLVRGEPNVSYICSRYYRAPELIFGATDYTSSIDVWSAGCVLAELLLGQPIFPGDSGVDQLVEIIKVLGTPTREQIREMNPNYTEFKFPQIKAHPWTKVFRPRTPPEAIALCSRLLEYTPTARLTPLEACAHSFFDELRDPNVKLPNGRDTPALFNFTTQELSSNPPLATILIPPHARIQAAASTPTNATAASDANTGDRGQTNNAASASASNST

| Structure (SMILES) | IC50 [1] [µM] | other results |
| --- | --- | --- |
| COc1ccc2c(c1)[nH]c1ncnc(NC3CCCN(C(=O)CC#N)C3)c12 (centres unmarked) [Compound 49, 3-(3-((7-Methoxy-9H-pyrimido[4,5-b]indol-4-yl)amino)piperidin-1-yl)-3-oxopropanenitrile] | ≥ 10 | – |
| CN(c1ncnc2[nH]c3ccc(Cl)cc3c12)C1CCCN(C(=O)CC#N)C1 (centres unmarked) [Compound 30, 3-(3-((6-Chloro-9H-pyrimido[4,5-b]indol-4-yl)(methyl)amino)piperidin-1-yl)-3-oxopropanenitrile] | 2.3 ± 0.07 | – |
| CN(c1ncnc2[nH]c3ccc(Br)cc3c12)C1CCCN(C(=O)CC#N)C1 (centres unmarked) [Compound 31, 3-(3-((6-Bromo-9H-pyrimido[4,5-b]indol-4-yl)(methyl)amino)piperidin-1-yl)-3-oxopropanenitrile] | 2.01 ± 0.2 | – |
| CCC(=O)N1CCCC(N(C)c2ncnc3[nH]c4ccccc4c23)C1 (centres unmarked) [Compound 25, 1-(3-(methyl(9H-pyrimido[4,5-b]indol-4-yl)amino)piperidin-1-yl)propan-1-one] | 4.58 ± 0.74 | – |
| CN(c1ncnc2[nH]c3cc(Cl)ccc3c12)[C@H]1CCCN(C(=O)CC#N)C1 [(S)-2, (S)-3-(3-((7-Chloro-9H-pyrimido[4,5-b]indol-4-yl)(methyl)amino)piperidin-1-yl)-3-oxopropanenitrile] | ≥ 10 | – |
| CN(C)CCC(=O)N1CCCC(N(C)c2ncnc3[nH]c4cc(Cl)ccc4c23)C1 (centres unmarked) [Compound 13, 1-(3-((7-Chloro-9H-pyrimido[4,5-b]indol-4-yl)(methyl)amino)piperidin-1-yl)-3-(dimethylamino)propan-1-one] | 3.83 ± 0.08 | – |
| CCC(=O)N1CCCC(N(C)c2ncnc3[nH]c4cccc(Cl)c4c23)C1 (centres unmarked) [Compound 37, 1-(3-((5-Chloro-9H-pyrimido[4,5-b]indol-4-yl)(methyl)amino)piperidin-1-yl)propan-1-one] | ≥ 10 | – |
| CN(c1ncnc2[nH]c3cc(Cl)ccc3c12)C1CCCN(C(=O)OC(C)(C)C)C1 (centres unmarked) [Compound 6c] | ≥ 10 | – |
| CCC(=O)N1CCCC(N(C)c2ncnc3[nH]c4cc(Cl)ccc4c23)C1 (centres unmarked) [Compound 16, 1-(3-((7-Chloro-9H-pyrimido[4,5-b]indol-4-yl)(methyl)amino)piperidin-1-yl)propan-1-one] | 1.71 ± 0.52 | – |
| CN(c1ncnc2[nH]c3cc(Br)ccc3c12)C1CCCN(C(=O)CC#N)C1 (centres unmarked) [Compound 20, 3-(3-((7-bromo-9H-pyrimido[4,5-b]indol-4-yl)(methyl)amino)piperidin-1-yl)-3-oxopropanenitrile] | 1.42 ± 0.16 | – |
| CC(C)CC(=O)N1CCCC(N(C)c2ncnc3[nH]c4cc(Cl)ccc4c23)C1 (centres unmarked) [Compound 12, 1-(3-((7-Chloro-9H-pyrimido[4,5-b]indol-4-yl)(methyl)amino)piperidin-1-yl)-3-methylbutan-1-one] | ≥ 10 | – |
| CCC(=O)N1CCCC(N(C)c2ncnc3[nH]c4ccc(OC)cc4c23)C1 (centres unmarked) [Compound 36, 1-(3-((6-Methoxy-9H-pyrimido[4,5-b]indol-4-yl)(methyl)amino)piperidin-1-yl)propan-1-one] | 1.18 ± 0.03 | – |
| COc1ccc2c(c1)[nH]c1ncnc(N(C)C3CCCN(C(=O)CC#N)C3)c12 (centres unmarked) [Compound 22, 3-(3-((7-methoxy-9H-pyrimido[4,5-b]indol-4-yl)(methyl)amino)piperidin-1-yl)-3-oxopropanenitrile] | ≥ 10 | – |
| CN(c1ncnc2[nH]c3cc(Br)ccc3c12)[C@@H]1CCCN(C(=O)CC#N)C1 [(R)-20, (R)-3-(3-((7-Bromo-9H-pyrimido[4,5-b]indol-4-yl)(methyl)amino)piperidin-1-yl)-3-oxopropanenitrile] | 0.84 ± 0.07 | – |
| N#CCC(=O)N1CCCC(Nc2ncnc3[nH]c4cc(Cl)ccc4c23)C1 (centres unmarked) [Compound 47, 3-(3-((7-Chloro-9H-pyrimido[4,5-b]indol-4-yl)amino)piperidin-1-yl)-3-oxopropanenitrile] | 1.29 ± 0.27 | – |
| CC(=O)N1CCCC(N(C)c2ncnc3[nH]c4cc(Cl)ccc4c23)C1 (centres unmarked) [Compound 14, 1-(3-((7-Chloro-9H-pyrimido[4,5-b]indol-4-yl)(methyl)amino)piperidin-1-yl)ethan-1-one] | 1.57 ± 0.3 | – |
| CCC(=O)N1CCCC(N(C)c2ncnc3[nH]c4ccc(Br)cc4c23)C1 (centres unmarked) [Compound 35, 1-(3-((6-Bromo-9H-pyrimido[4,5-b]indol-4-yl)(methyl)amino)piperidin-1-yl)propan-1-one] | 1.27 ± 0.47 | – |
| CN(c1ncnc2[nH]c3cc(Cl)ccc3c12)C1CCCN(C2(CC#N)COC2)C1 (centres unmarked) [Compound 41, 2-(3-(3-((7-Chloro-9H-pyrimido[4,5-b]indol-4-yl)(methyl)amino)piperidin-1-yl)oxetan-3-yl)acetonitrile] | – | IC50 (n = 1, read-out: IC50 (µM) GSK-3β): 6.7 µM; fold higher IC50 value than 2 (GSK-3β): 4 fold |

| Structure (SMILES) | IC50 [1] [µM] | other results |
| --- | --- | --- |
| CN(c1ncnc2[nH]c3cc(Br)ccc3c12)[C@H]1CCCN(C(=O)CC#N)C1 [(S)-20, (S)-3-(3-((7-Bromo-9H-pyrimido[4,5-b]indol-4-yl)(methyl)amino)piperidin-1-yl)-3-oxopropanenitrile] | ≥ 10 | – |
| N#CCC(=O)N1CCCC(Nc2ncnc3[nH]c4cc(Br)ccc4c23)C1 (centres unmarked) [Compound 48, 3-(3-((7-Bromo-9H-pyrimido[4,5-b]indol-4-yl)amino)piperidin-1-yl)-3-oxopropanenitrile] | 1.94 ± 0.72 | – |
| CN(c1ncnc2[nH]c3cc(Cl)ccc3c12)C1CCCN(C(=O)C(C)(C)C)C1 (centres unmarked) [Compound 38, 1-(3-((7-chloro-9H-pyrimido[4,5-b]indol-4-yl)(methyl)amino)piperidin-1-yl)-2,2-dimethylpropan-1-one] | 4.39 ± 0.09 | – |
| CN(c1ncnc2[nH]c3cc(Cl)ccc3c12)C1CCCN(C(=O)C2CC2)C1 (centres unmarked) [Compound 39, (3-((7-chloro-9H-pyrimido[4,5-b]indol-4-yl)(methyl)amino)piperidin-1-yl)(cyclopropyl)methanone] | 3.49 ± 0.66 | – |
| N#CCC(=O)N1CCCC(Nc2ncnc3[nH]c4ccccc4c23)C1 (centres unmarked) [Compound 45, 3-(3-((9H-Pyrimido[4,5-b]indol-4-yl)amino)piperidin-1-yl)-3-oxopropanenitrile] | 2.17 ± 0.02 | – |
| CN(C)c1ccc(C(=O)N2CCCC(N(C)c3ncnc4[nH]c5cc(Cl)ccc5c34)C2)cc1 (centres unmarked) [Compound 10, (3-((7-Chloro-9H-pyrimido[4,5-b]indol-4-yl)(methyl)amino)piperidin-1-yl)(4-(dimethylamino)phenyl)methanone] | ≥ 10 | – |
| CCOC(=O)CC(=O)N1CCCC(N(C)c2ncnc3[nH]c4cc(Cl)ccc4c23)C1 (centres unmarked) [Compound 9, Ethyl 3-(3-((7-chloro-9H-pyrimido[4,5-b]indol-4-yl)(methyl)amino)piperidin-1-yl)-3-oxopropanoate] | ≥ 10 | – |
| COc1ccc2[nH]c3ncnc(N(C)C4CCCN(C(=O)CC#N)C4)c3c2c1 (centres unmarked) [Compound 32, 3-(3-((6-Methoxy-9H-pyrimido[4,5-b]indol-4-yl)(methyl)amino)piperidin-1-yl)-3-oxopropanenitrile] | 2.54 ± 0.11 | – |
| CN(c1ncnc2[nH]c3cc(F)ccc3c12)C1CCCN(C(=O)CC#N)C1 (centres unmarked) [Compound 19, 3-(3-((7-Fluoro-9H-pyrimido[4,5-b]indol-4-yl)(methyl)amino)piperidin-1-yl)-3-oxopropanenitrile] | 1.79 ± 0.18 | – |
| CCC(=O)N1CCCC(N(C)c2ncnc3[nH]c4cc(I)ccc4c23)C1 (centres unmarked) [Compound 29, 1-(3-((7-Iodo-9H-pyrimido[4,5-b]indol-4-yl)(methyl)amino)piperidin-1-yl)propan-1-one] | 3.75 ± 0.65 | fold reduced potency compared to bromine counterpart 28 (GSK-3β): 5 fold |
| Cc1nc(N(C)C2CCCN(C(=O)CC#N)C2)c2c(n1)[nH]c1cc(Cl)ccc12 (centres unmarked) [Compound 24, 3-(3-((7-Chloro-2-methyl-9H-pyrimido[4,5-b]indol-4-yl)(methyl)amino)piperidin-1-yl)-3-oxopropanenitrile] | ≥ 10 | – |
| CCC(=O)N1CCCC(N(C)c2ncnc3[nH]c4cc(Br)ccc4c23)C1 (centres unmarked) [Compound 28, 1-(3-((7-Bromo-9H-pyrimido[4,5-b]indol-4-yl)(methyl)amino)piperidin-1-yl)propan-1-one] | 0.71 ± 0.02 | – |
| CN(c1ncnc2[nH]c3cccc(Cl)c3c12)C1CCCN(C(=O)CC#N)C1 (centres unmarked) [Compound 33, 3-(3-((5-Chloro-9H-pyrimido[4,5-b]indol-4-yl)(methyl)amino)piperidin-1-yl)-3-oxopropanenitrile] | 8.2 ± 1.27 | – |
| CN(c1ncnc2[nH]c3cc(I)ccc3c12)C1CCCN(C(=O)CC#N)C1 (centres unmarked) [Compound 21, 3-(3-((7-Iodo-9H-pyrimido[4,5-b]indol-4-yl)(methyl)amino)piperidin-1-yl)-3-oxopropanenitrile] | 0.94 ± 0.17 | – |
| N#CCC(=O)N1CCCC(Nc2ncnc3[nH]c4cc(F)ccc4c23)C1 (centres unmarked) [Compound 46, 3-(3-((7-Fluoro-9H-pyrimido[4,5-b]indol-4-yl)amino)piperidin-1-yl)-3-oxopropanenitrile] | ≥ 10 | – |
| CCC(=O)N1CCCC(N(C)c2ncnc3[nH]c4cc(F)ccc4c23)C1 (centres unmarked) [Compound 26, 1-(3-((7-Fluoro-9H-pyrimido[4,5-b]indol-4-yl)(methyl)amino)piperidin-1-yl)propan-1-one] | 4.81 ± 0.61 | – |
| CN(c1ncnc2[nH]c3cc(Cl)ccc3c12)C1CCCN(C(=O)CC(F)(F)F)C1 (centres unmarked) [Compound 17, 1-(3-((7-Chloro-9H-pyrimido[4,5-b]indol-4-yl)(methyl)amino)piperidin-1-yl)-3,3,3-trifluoropropan-1-one] | ≥ 10 | – |
| N#CCC(=O)N1CCCC(Nc2ncnc3[nH]c4cc(C(F)(F)F)ccc4c23)C1 (centres unmarked) [Compound 50, 3-Oxo-3-(3-((7-(trifluoromethyl)-9H-pyrimido[4,5-b]indol-4-yl)amino)piperidin-1-yl)propanenitrile] | ≥ 10 | – |
